The source of these data is patent US9072698B2, “Method for screening anti-cancer compounds inhibiting function of TM4SF5 and anti-cancer composition containing chalcone compounds” (Seoul National University Industry Foundation, priority 2006, dated 2015).

In brackets after ≈: the same amount, converted by molar mass.

Assay [1] has as its system A-549 (lung carcinoma). Nature of the assay: In vitro cytotoxicity, sulforhodamine B (SRB) method, A-549. To be noted: Homo sapiens, A549; A-549, SRB method; read-out: cytotoxicity (ED50) A-549. The assay is classed as cell-based. A digest of the protocol: (§1)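 Cells grown in RPMI 1640 with 10% FCS at 37 °C, 5% CO2 were exposed to compounds at 30, 10, 3, 1 and 0.3 μg/ml final, with DMSO below 0.5%. Cytotoxicity was read by the standard NCI sulforhodamine B protein-staining method.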

Assay [2] has as its system tumors formed in mice implanted with TM4SF5-expressing cells (SNU449Tp). Description: Tumors in nude mice implanted with TM4SF5-expressing cells, intraperitoneal TSAHC. The assay is classed as in vivo. Here is the method:
Next, various SNU449 cell lines, expressing or not expressing TM4SF5, were injected into nude mice. 4-5 week-old female nude BALB/cAnNCrjBgi-nu mice (Orient. Co. Ltd), weighing about 20 g, were used. Animals were housed in sterilized cages, and given free access to sterilized water and feed. All procedures were carried out in the clean bench in which laminar flow was continuously maintained to provide a clean environment.
Nude mice were maintained under a light cycle of 12-hr light and 12-hr dark using indoor lamps, for biological cycle of day and night. Suspensions of SNU449 Cp, SNU449Tp, SNU449T16 and SNU449T16m cells were centrifuged, and the concentrated cells were counted using a hemocytometer to adjust them to a density of 1×10^7 cells/200 The prepared cells were subcutaneously injected into the flank of nude mice using a 1-ml syringe having a 26-gauge needle. Experimental animals were maintained according to the preclinical method for breeding of laboratory animals, Seoul National University, and were monitored for tumor formation by SNU449Tp cells.
The length and width of tumors formed in nude mice, prepared in Example 6, were measured one every two days using calipers. Tumor volume was calculated according to the following Equation: Volume (mm^3)=Length×Width2×½, Length: long diameter, Width: short diameter). […]

In assay [3] the test system is p27^kip1, pS^10p27^kip1, pY^577FAK and α-SMA. Nature of the assay: Western blotting for TM4SF5-mediated protein expression (FIG. 46). The assay is classed as cell-based, human. As to the method: Cell lysates, obtained under various experimental conditions, were prepared using RIPA buffer after cells under various conditions were washed with PBS. In special cases, employed cells were transfected with given expression vectors or infected with an adenovirus expressing an shRNA to TM4SF5 or a siRNA to p27^kip1. In addition, cells treated with 10 μM of cycloheximide for a given period of time were used. For such cell lysates, protein was quantified, and the same amounts of protein were used. Western blotting was performed using antibodies to phospho-Y^577FAK, phospho-Y^416Src, c-Src, RhoA, p120^ctn, β-catenin, pS^10p27^kip1, FAK, E-cadherin, ZO1, Rac1, p190RhoGAP, p27^kip1, GRAF, hKIS, desmoplakin, α-tubulin, α-catenin, and α-smooth muscle actin (α-SMA).

Assay [4] concerns HCT15 (colon adenocarcinoma). Nature of the assay: In vitro cytotoxicity, sulforhodamine B (SRB) method, HCT15. To be noted: Homo sapiens; HCT-15, SRB method; read-out: cytotoxicity (ED50) HCT-15. The class given is cell-based. Summed up:
as §1

Assay [5] relates to RhoA. Nature of the assay: In vitro RhoA activity assay (FIG. 48). To be noted: TM4SF5-expressing cells. The class given is cell-based, human. As to the method: In order to investigate signaling pathways involved in the aforementioned morphological change, TM4SF5-expressing cell lines (SNU449Tp, T3, T7 and T16), established in Example 1, were assessed for expression levels of FAK phosphorylated at Tyr577 (pY^577FAK) and c-Src phosphorylated at Tyr 416 (pY^416cSrc), Rac1 activity and RhoA activity. Whole cell lysates were prepared and subjected to Western blot analysis, which was performed with each antibody against proteins indicated in FIGS. 3 and 5. The activity of RhoA and Rac1 was monitored by pull-down of RhoA and Rac1 from the cell lysates in vitro.

Assay [6] deals with PC-3 (prostate adenocarcinoma). Nature of the assay: In vitro cytotoxicity, sulforhodamine B (SRB) method, PC-3. The assay is classed as cell-based. Conditions: Homo sapiens; PC-3, SRB method; read-out: cytotoxicity (ED50) PC-3. Summed up:
as §1

The subject of assay [7] is SNU449Tp cells. Nature of the assay: BrdU immunofluorescent staining, S-phase progression (FIG. 44). To be noted: 20 μM, BrdU for 24 hrs. The assay is classed as cell-based, human. As to the method: When cells were transfected with given specific genes or infected with various viruses, they were used after being cultured for a given period of time. Cells treated with 10 mM lysophosphatidic acid (LPA) were used 1 hour after being attached to cover glasses. Immunofluorescent staining was carried out by preparing a slide for fluorescent analysis through incubation with a primary antibody against a target protein, washing out unbound antibody molecules, incubation with a fluorescein-conjugated secondary antibody and washing out unbound antibody molecules, and actin filament staininh was carried out with rhodamine-conjugated phalloidin. Antibodies used included antibodies against E-cadherin, β-catenin, FLAG, 4′-6-diamidino-2-phenylindole (DAPI), 5-brorno-2′-deoxy-uridine (BrdU), p27^kip1, ZO1 (zonula occludens-1), and the like. Immunofluorescent stained cover glasses were placed on slides and observed under a fluorescence microscope or a confocal laser scanning microscope.

Assay [8] deals with cells not expressing TM4SF5. Description: Growth/proliferation of cells not expressing TM4SF5 (FIG. 51). The assay is classed as cell-based.

`Cc1ccc(S(=O)(=O)Nc2ccc(C(=O)/C=C/c3ccc(O)cc3)cc2)cc1` [Compound 1, 4′-(p-toluenesulfonylamino)-4-hydroxychalcone]: the IC50 in assay [1] amounted to 38 µg/mL (≈ 96.6 µM); in assay [4], 35 µg/mL (≈ 89 µM); in assay [6], 37 µg/mL (≈ 94 µM). Also, the “tumor size decreased by” value in assay [2] (5 mg/kg intraperitoneally once every two days for three weeks) is recorded as 45%; in assay [2] (50 mg/kg intraperitoneally once every two days for three weeks) it was 88%. Further, in assay [3], the “expression levels of p27^kip1, pS^10p27^kip1, pY^577FAK and α-SMA” value is “effectively reduce TM4SF5-mediated high expression levels of p27^kip1, pS^10p27^kip1, pY^577FAK and α-SMA”. Further, the RhoA activity result in assay [5] is “restored the reduced RhoA activity in TM4SF5-expressing cells”. In addition, the S-phase progression entry in assay [7] is “inhibited S-phase progression”. Also, the “growth or proliferation of cells not expressing TM4SF5” value in assay [8] is “did not affect cells not expressing TM4SF5”.
